Literature values, collected in patent publication US20210368801A1, “COMPOSITION FOR PREPARING HYPOCHLOROUS ACID WATER, AND TEST PAPER FOR DETERMINING HYPOCHLOROUS ACID WATER” (Wabian Co., Ltd., priority 2020, published 2021).

What was measured:
[1] = electrolytic type; http://www.jsia.gr.jp/data/naclo.pdf
coronavirus = conditions: as an effective chlorine amount, according to NITE

Structure (SMILES)	LD50 [1] [mg/kg]	effective concentration for the coronavirus (coronavirus) [ppm]
OCl [sodium hypochlorite]	1000	–
OCl [hypochlorous acid]	–	35
